From patent US9670142B2, “1,3-diaminocyclopentane carboxamide derivatives” (Merck Patent GmbH, priority 2013, dated 2017) come the findings set out here.

Some results are limits rather than exact numbers.

human fatty acid synthase FASN, sequence (P49327 whole entry): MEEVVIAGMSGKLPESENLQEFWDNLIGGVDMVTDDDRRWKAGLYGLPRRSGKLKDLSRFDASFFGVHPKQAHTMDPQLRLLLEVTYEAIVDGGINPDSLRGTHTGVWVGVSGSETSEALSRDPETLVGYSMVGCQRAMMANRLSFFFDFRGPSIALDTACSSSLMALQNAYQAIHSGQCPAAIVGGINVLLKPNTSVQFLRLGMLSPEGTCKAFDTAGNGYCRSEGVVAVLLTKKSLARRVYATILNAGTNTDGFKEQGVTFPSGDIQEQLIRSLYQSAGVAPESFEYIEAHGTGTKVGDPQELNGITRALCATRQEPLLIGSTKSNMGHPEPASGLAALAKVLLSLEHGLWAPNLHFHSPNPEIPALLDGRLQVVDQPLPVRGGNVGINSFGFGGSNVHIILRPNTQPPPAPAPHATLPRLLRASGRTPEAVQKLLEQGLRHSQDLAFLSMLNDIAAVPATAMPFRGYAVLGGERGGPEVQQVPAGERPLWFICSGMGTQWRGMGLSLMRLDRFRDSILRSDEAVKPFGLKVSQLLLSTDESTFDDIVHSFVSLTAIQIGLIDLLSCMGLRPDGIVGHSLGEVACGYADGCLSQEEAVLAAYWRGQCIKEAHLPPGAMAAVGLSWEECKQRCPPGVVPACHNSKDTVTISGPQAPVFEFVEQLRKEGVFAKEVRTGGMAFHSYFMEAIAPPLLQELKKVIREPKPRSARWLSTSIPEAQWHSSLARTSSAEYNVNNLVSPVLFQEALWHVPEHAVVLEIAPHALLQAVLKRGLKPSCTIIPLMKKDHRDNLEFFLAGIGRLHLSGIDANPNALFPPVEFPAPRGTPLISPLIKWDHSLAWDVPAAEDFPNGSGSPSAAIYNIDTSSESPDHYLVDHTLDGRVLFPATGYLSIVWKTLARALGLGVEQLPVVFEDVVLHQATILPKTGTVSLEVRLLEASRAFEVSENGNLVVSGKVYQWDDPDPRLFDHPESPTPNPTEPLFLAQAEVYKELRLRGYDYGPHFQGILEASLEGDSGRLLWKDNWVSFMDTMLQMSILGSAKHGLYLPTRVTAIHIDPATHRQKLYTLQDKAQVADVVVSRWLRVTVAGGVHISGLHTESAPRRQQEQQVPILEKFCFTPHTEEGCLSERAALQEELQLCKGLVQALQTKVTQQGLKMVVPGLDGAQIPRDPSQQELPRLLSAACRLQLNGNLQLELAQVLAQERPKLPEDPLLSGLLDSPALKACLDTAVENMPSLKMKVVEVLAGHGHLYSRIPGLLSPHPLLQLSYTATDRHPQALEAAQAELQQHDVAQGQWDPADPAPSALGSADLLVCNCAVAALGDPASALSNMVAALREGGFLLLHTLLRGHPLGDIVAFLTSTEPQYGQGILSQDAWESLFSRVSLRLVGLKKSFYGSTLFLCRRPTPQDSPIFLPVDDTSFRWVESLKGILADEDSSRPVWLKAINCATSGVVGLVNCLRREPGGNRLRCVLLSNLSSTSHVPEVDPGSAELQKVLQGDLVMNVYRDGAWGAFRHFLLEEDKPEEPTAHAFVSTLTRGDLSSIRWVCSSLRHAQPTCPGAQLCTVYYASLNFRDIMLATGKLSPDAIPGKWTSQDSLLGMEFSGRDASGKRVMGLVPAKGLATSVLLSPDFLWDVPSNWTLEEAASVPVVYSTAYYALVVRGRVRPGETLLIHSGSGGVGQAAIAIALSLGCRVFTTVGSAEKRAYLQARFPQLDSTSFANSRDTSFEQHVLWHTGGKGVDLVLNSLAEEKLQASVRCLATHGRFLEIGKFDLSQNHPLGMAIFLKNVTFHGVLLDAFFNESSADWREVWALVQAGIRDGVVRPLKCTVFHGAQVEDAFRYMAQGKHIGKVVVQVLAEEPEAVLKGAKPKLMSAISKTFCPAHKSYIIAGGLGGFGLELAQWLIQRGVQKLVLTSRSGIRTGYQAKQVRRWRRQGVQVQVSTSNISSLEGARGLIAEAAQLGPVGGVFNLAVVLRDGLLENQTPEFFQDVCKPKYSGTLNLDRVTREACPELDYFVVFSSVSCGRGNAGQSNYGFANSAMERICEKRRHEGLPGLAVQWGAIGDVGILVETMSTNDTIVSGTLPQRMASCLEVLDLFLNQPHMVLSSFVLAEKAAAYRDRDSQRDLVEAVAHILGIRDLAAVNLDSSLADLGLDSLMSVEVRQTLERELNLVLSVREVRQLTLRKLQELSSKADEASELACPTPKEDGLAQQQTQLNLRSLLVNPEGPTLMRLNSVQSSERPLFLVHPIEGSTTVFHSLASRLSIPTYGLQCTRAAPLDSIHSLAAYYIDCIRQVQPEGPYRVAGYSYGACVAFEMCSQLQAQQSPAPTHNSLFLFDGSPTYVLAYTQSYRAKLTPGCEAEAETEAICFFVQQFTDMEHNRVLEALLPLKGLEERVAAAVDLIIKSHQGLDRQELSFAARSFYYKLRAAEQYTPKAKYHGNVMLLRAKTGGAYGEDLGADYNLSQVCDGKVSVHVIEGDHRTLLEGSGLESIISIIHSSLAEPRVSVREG

This experiment concerns the target human fatty acid synthase FASN (Homo sapiens (Human), UniProt P49327). In words: Biochemical activity testing of human fatty acid synthase FASN (NADPH fluorescence intensity enzyme assay). To be noted: human recombinant full-length fatty acid synthase. From the text:
Biochemical activity testing of human fatty acid synthase FASN
Fatty acid synthase FASN is a multifunctional enzyme with seven catalytic activities thereby synthesising long chain fatty acids especially palmitoyl-CoA in the presence of co-factor NADPH starting from the substrates acetyl-CoA and malonyl-CoA. The reductive synthesis is realized by the oxidation of NADPH to NADP. Since NADPH has a high fluorescence intensity quantum yield compared to NADP with excitation at 340 nm and emission at 460 nm, the reaction can be monitored via the decrease in fluorescence intensity. The biochemical FASN activity testing was performed as 384 well two-time-point kinetic fluorescence intensity assay format in Greiner low volume medium binding 384-well black microtiter plates in a total assay volume of 8 μl and was used for high throughput screen. In each well 3 μl 40 nM human recombinant full-length fatty acid synthase (produced in-house in SF9 cells) were dispensed in the following assay buffer: 50 mM potassium phosphate buffer pH 7.0, 0.005% (w/v) BSA, 2 mM Glutathione, 0.02% Tween-20. Then 2 μl of 200 μM NADPH in assay buffer were added, followed by the addition of the test compounds in 10 dilution concentrations starting with 30 μM (final concentration) to get a final DMSO content of 1% (v/v). The mixture was incubated for at least 15 min at room temperature. After the pre-incubation the enzymatic reaction was started by the addition of 2 μl substrate solution (80 μM acetyl-CoA, 240 μM malonyl-CoA). A first fluorescence intensity measurement (time point one) was performed with an Envision multimode reader (Perkin Elmer LAS Germany GmbH) at excitation wavelength 340 nm (lamp mode) and emission wavelength 460 nm. The reaction was incubated for 30 minutes at room temperature. After this the fluorescence intensity was measured again in the Envision using the same parameters as described above (second time point measurement). The data were analysed by subtracting the first time point measurement value from the second time point measurement value (after the enzymatic reaction). The differences of the emission signals were determined. These reflect directly the conversion rate of NADPH. The full value used was the inhibitor-free reaction. A pharmacological zero value was used like GSK837149A (Sigma-Aldrich) in a final concentration of 5-10 μM. The inhibitory values (IC50) were determined using either the program Symyx Assay Explorer® or Condosseo® from GeneData.
As for `CCC(=O)N[C@H]1CC[C@@H](N(C)C(=O)c2cnc(-c3nc4ccc(Cl)cc4o3)cn2)C1` [Compound A148, 5-(6-chloro-benzoxazol-2-yl)-pyrazine-2-carboxylic acid methyl-((1R,3S)-3-propionylamino-cyclopentyl)-amide], the IC50 was 300 to 3000 nM.

For the molecule `CCC(=O)N[C@H]1CC[C@@H](N(C)C(=O)c2ccc(-c3ccc4c(ccn4C)c3)cc2C)C1` [Compound A119, 2,N-dimethyl-4-(1-methyl-1H-indol-5-yl)-N-((1R,3S)-3-propionylamino-cyclopentyl)-benzamide], the IC50 is below 300 nM.

For `CCC(=O)N[C@H]1CC[C@@H](N(C)C(=O)c2ccc(-c3ccc(C(C)C)cc3)cc2)C1` [Compound A96, 4′-isopropyl-biphenyl-4-carboxylic acid methyl-((1R,3S)-3-propionylamino-cyclopentyl)-amide], the IC50 lay within 300 to 3000 nM.

As for `CCC(=O)N[C@H]1CC[C@@H](N(C)C(=O)c2ccc(-c3ccc(OC)cc3F)cc2)C1` [Compound A99, 2′-fluoro-4′-methoxy-biphenyl-4-carboxylic acid methyl-((1R,3S)-3-propionylamino-cyclopentyl)-amide], the IC50 was below 300 nM.

On to `CCC(=O)N[C@H]1CC[C@@H](N(C)C(=O)c2ccc(-c3ccc(OC)cc3)cc2)C1` [Compound A82, 4′-methoxy-biphenyl-4-carboxylic acid methyl-((1R,3S)-3-propionylamino-cyclopentyl)-amide], for which the IC50 is below 300 nM.

On to `CCC(=O)N[C@H]1CC[C@@H](N(C)C(=O)c2ccc(-c3ccc4c(c3)CC(=O)N4)cc2)C1` [Compound A94, N-methyl-4-(2-oxo-2,3-dihydro-1H-indol-5-yl)-N-((1R,3S)-3-propionylamino-cyclopentyl)-benzamide], for which the IC50 is below 300 nM.

On to `CCC(=O)N[C@H]1CC[C@@H](N(C)C(=O)c2ncc(-c3nc4ccc(Cl)cc4o3)cn2)C1` [Compound A156, 5-(6-chloro-benzoxazol-2-yl)-pyrimidine-2-carboxylic acid methyl-((1R,3S)-3-propionylamino-cyclopentyl)-amide], for which the IC50 lay within 3000 to 50000 nM.

As to `CCC(=O)N[C@H]1CC[C@@H](N(C)C(=O)c2ccc(-c3nc4ccccc4s3)cc2)C1` [Compound A6, 4-benzothiazol-2-yl-N-methyl-N-((1R,3S)-3-propionylamino-cyclopentyl)-benzamide], the IC50 is below 300 nM.

Consider `CCC(=O)N[C@H]1CC[C@@H](N(C)C(=O)c2ccc(-c3cc(F)c4[nH]ccc4c3)nc2)C1` [Compound A134, 6-(7-fluoro-1H-indol-5-yl)-N-methyl-N-((1R,3S)-3-propionylamino-cyclopentyl)-nicotinamide], for which the IC50 lay within 300 to 3000 nM.

Take `CCC(=O)N[C@H]1CC[C@@H](N(C)C(=O)c2ccc(-c3ccc(OC)c(OC)c3)cc2)C1` [Compound A56, 3′,4′-dimethoxy-biphenyl-4-carboxylic acid methyl-((1R,3S)-3-propionylamino-cyclopentyl)-amide]: the half-inhibitory concentration (IC50) is below 300 nM.

In the case of `CCC(=O)N[C@H]1CC[C@@H](N(C)C(=O)c2ccc(-c3ccc4c(ccn4C)c3)cc2)C1` [Compound A80, N-methyl-4-(1-methyl-1H-indol-5-yl)-N-((1R,3S)-3-propionylamino-cyclopentyl)-benzamide], the IC50 is below 300 nM.

As for `CCC(=O)N[C@H]1CC[C@@H](N(C)C(=O)c2ccc(-c3ccc4[nH]ccc4n3)cc2)C1` [Compound A129, N-methyl-N-((1R,3S)-3-propionylamino-cyclopentyl)-4-(1H-pyrrolo[3,2-b]pyridin-5-yl)-benzamide], the half-maximal inhibitory concentration (IC50) is below 300 nM.

Consider `CCC(=O)N[C@H]1CC[C@@H](N(C)C(=O)c2ccc(-c3nc4ccc(Cl)cc4o3)nn2)C1` [Compound A155, 6-(6-chloro-benzoxazol-2-yl)-pyridazine-3-carboxylic acid methyl-((1R,3S)-3-propionylamino-cyclopentyl)-amide], for which the IC50 was 3000 to 50000 nM.

Regarding `CN(C)CC(=O)N[C@H]1CC[C@@H](N(C)C(=O)c2ccc(-c3nc4ccccc4o3)cc2)C1` [Compound A36, 4-benzoxazol-2-yl-N-[(1R,3S)-3-(2-dimethylamino-acetylamino)-cyclopentyl]-N-methyl-benzamide], the IC50 lay in the range of 300 to 3000 nM.

Turning to `CCC(=O)N[C@H]1CC[C@@H](N(C)C(=O)c2ccc(-c3ccc4c(ccn4C)c3)c(C)c2)C1` [Compound A114, 3,N-dimethyl-4-(1-methyl-1H-indol-5-yl)-N-((1R,3S)-3-propionylamino-cyclopentyl)-benzamide], the IC50 is below 300 nM.

Consider `CN(C(=O)c1ccc(-c2nc3cccc(F)c3o2)cc1)[C@@H]1CC[C@H](NC(=O)C2CC2)C1` [Compound A50, N-[(1R,3S)-3-(cyclopropanecarbonyl-amino)-cyclopentyl]-4-(7-fluoro-benzoxazol-2-yl)-N-methyl-benzamide], for which the IC50 is 300 to 3000 nM.

With `CC(=O)N[C@@H]1CC[C@@H](N(C)C(=O)c2ccc(-c3nc4ccccc4o3)cc2)C1` [Compound A166, N-((1R,3R)-3-acetylamino-cyclopentyl)-4-benzooxazol-2-yl-N-methyl-benzamide], the IC50 was 3000 to 50000 nM.

Turning to `CCC(=O)N[C@H]1CC[C@@H](N(C)C(=O)c2ccc(-c3ccc4[nH]ncc4c3)cc2)C1` [Compound A84, 4-(1H-indazol-5-yl)-N-methyl-N-((1R,3S)-3-propionylamino-cyclopentyl)-benzamide], the IC50 is below 300 nM.

Take `CCC(=O)N[C@H]1CC[C@@H](N(C)C(=O)c2ccc(-c3ccc(C(=O)OC)cc3F)cc2)C1` [Compound A97, 2-fluoro-4′-[methyl-((1R,3S)-3-propionylamino-cyclopentyl)-carbamoyl]-biphenyl-4-carboxylic acid methyl ester]: the IC50 is below 300 nM.

For `CCC(=O)N[C@H]1CC[C@@H](N(C)C(=O)c2ccc(-c3ncc[nH]3)cc2)C1` [Compound A11, 4-(1H-imidazol-2-yl)-N-methyl-N-((1R,3S)-3-propionylamino-cyclopentyl)-benzamide], the IC50 lay within 3000 to 50000 nM.

Consider `CC(=O)N[C@@H](C)C(=O)N[C@H]1CC[C@@H](N(C)C(=O)c2ccc(-c3nc4ccccc4o3)cc2)C1` [Compound A47, N-[(1R,3S)-3-((S)-2-acetylamino-propionylamino)-cyclopentyl]-4-benzoxazol-2-yl-N-methyl-benzamide], for which the IC50 was in the range of 3000 to 50000 nM.

For `CN(C(=O)c1ccc(-c2nc3ccc(Cl)cc3o2)nc1)[C@@H]1CC[C@H](NC(=O)[C@@H]2CCCO2)C1` [Compound A154, 6-(6-chloro-benzoxazol-2-yl)-N-methyl-N-{(1R,3S)-3-[((S)-tetrahydro-furan-2-carbonyl)-amino]-cyclopentyl}-nicotinamide], the IC50 is below 300 nM.

For `CCC(=O)N[C@H]1CC[C@@H](N(C)C(=O)c2cnc(-c3ccc4c(ccn4C)c3)cn2)C1` [Compound A125, 5-(1-methyl-1H-indol-5-yl)-pyrazine-2-carboxylic acid methyl-((1R,3S)-3-propionylamino-cyclopentyl)-amide], the IC50 is below 300 nM.

On to `CCC(=O)N[C@H]1CC[C@@H](N(C)C(=O)c2ccc(-c3ccc(C(=O)OC)c(F)c3)cc2)C1` [Compound A69, 3-fluoro-4′-[methyl-((1R,3S)-3-propionylamino-cyclopentyl)-carbamoyl]-biphenyl-4-carboxylic acid methyl ester], for which the IC50 is below 300 nM.
